According to patent publication US10517889B2, “Modulators of SMAD7 expression” (Ionis Pharmaceuticals, Inc., priority 2017, dated 2019):
Strand notation (5' to 3'): a small letter for the sugar, then the base; units joined by * are phosphorothioate-linked, units joined directly phosphodiester-linked; [ ] holds rarer units or linkages, { } end groups; capitals alone tell only the bases. k = constrained ethyl (cEt); [5mC] = 5-methylcytosine; d = 2'-deoxy (DNA)

tested on: human SMAD7 mRNA; assay: Antisense inhibition of human SMAD7 mRNA expression in Hep3B cells by 3-10-3 cEt gapmers, 10,000 nM, electroporation (Example 2); type: cell-based; conditions: Hep3B cells, 10,000 nM antisense oligonucleotide, electroporation, approximately 24 hours, RT-PCR primer probe set RTS5062, relative to untreated control cells
How it was run: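 Hep3B cells (20,000/well) were electroporated with 10,000 nM 3-10-3 cEt gapmer (16-mer, phosphorothioate, 5-methylcytosines) and harvested after about 24 h. SMAD7 mRNA quantified by RT-qPCR with primer probe set RTS5062, normalized to total RNA by RiboGreen; percent inhibition relative to untreated cells.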

| Substance | % Inhibition [%] |
| --- | --- |
| 799900 (antisense k[5mC]*kA*kA*dG*dT*d[5mC]*dT*d[5mC]*dT*dT*dA*d[5mC]*d[5mC]*kT*k[5mC]*kA) [compound 799900] | 51 |
| 800033 (k[5mC]*kA*k[5mC]*dT*dA*d[5mC]*dA*dG*dA*dG*dA*dT*dT*k[5mC]*k[5mC]*k[5mC]; antisense) [compound 800033] | 52 |

same assay, conditions: Hep3B cells, electroporation with 10,000 nM antisense oligonucleotide, approximately 24 hours, RTS5062, percent inhibition of SMAD7 mRNA relative to untreated control cells

| Substance | % Inhibition [%] |
| --- | --- |
| 799604 (k[5mC]*kA*kT*d[5mC]*dA*d[5mC]*d[5mC]*dT*d[5mC]*d[5mC]*d[5mC]*d[5mC]*dT*k[5mC]*k[5mC]*kA; antisense) [compound 799604] | 0 |
| 799314 (antisense k[5mC]*kA*kA*dG*dA*dT*d[5mC]*d[5mC]*dA*dT*d[5mC]*dT*dT*kT*kA*kA) [compound 799314] | 0 |
| 799546 (kT*kA*k[5mC]*dT*dG*dT*dT*dG*dG*d[5mC]*dA*dG*dT*kG*k[5mC]*kT; antisense) [compound 799546] | 48 |
| 799567 (k[5mC]*kT*kT*dT*dG*dA*dG*dT*dA*dA*dA*d[5mC]*dA*kA*kT*kA; antisense) [compound 799567] | 15 |

same assay, conditions: Hep3B cells, electroporation with 10,000 nM antisense oligonucleotide, approximately 24 hours, SMAD7 mRNA by RT-PCR (RTS5062), relative to untreated control cells

| Substance | % Inhibition [%] |
| --- | --- |
| 800082 (antisense kG*k[5mC]*kA*dG*dA*d[5mC]*d[5mC]*dG*dG*dT*dA*dT*dT*kA*kA*k[5mC]) [compound 800082] | 12 |
| 800039 (kG*kG*kT*dT*dA*dA*dT*dG*dG*d[5mC]*d[5mC]*d[5mC]*dA*kG*k[5mC]*k[5mC]; antisense) [compound 800039] | 27 |
| 772587 (kA*kT*k[5mC]*d[5mC]*d[5mC]*d[5mC]*dA*dG*dG*d[5mC]*dT*d[5mC]*d[5mC]*kA*kG*kA; antisense) [compound 772587] | 39 |
| 798782 (kT*kG*k[5mC]*dA*dG*d[5mC]*dA*d[5mC]*dA*d[5mC]*d[5mC]*dA*dG*k[5mC]*kT*k[5mC]; antisense) [compound 798782] | 51 |
| 830040 (antisense k[5mC]*kA*k[5mC]*dT*dT*d[5mC]*d[5mC]*dT*dA*dT*dT*dG*dG*k[5mC]*kT*kG) [compound 830040] | 44 |
| 798694 (antisense kG*kT*k[5mC]*d[5mC]*dT*d[5mC]*dG*d[5mC]*d[5mC]*dG*d[5mC]*d[5mC]*dG*kG*kG*k[5mC]) [compound 798694] | 0 |
| 772590 (kT*kG*kT*dG*dA*d[5mC]*d[5mC]*dG*dA*dT*d[5mC]*d[5mC]*d[5mC]*k[5mC]*kA*kG; antisense) [compound 772590] | 37 |
| 799353 (kT*k[5mC]*kT*dT*dT*dT*dA*dG*d[5mC]*d[5mC]*d[5mC]*dA*dA*k[5mC]*kT*kG; antisense) [compound 799353] | 45 |
| 800060 (antisense k[5mC]*k[5mC]*k[5mC]*d[5mC]*dA*dA*dA*dA*dG*d[5mC]*dT*d[5mC]*d[5mC]*kA*k[5mC]*kA) [compound 800060] | 5 |
| 830059 (kG*kG*kG*d[5mC]*d[5mC]*dA*d[5mC]*d[5mC]*d[5mC]*dA*dG*dT*dG*kA*kG*k[5mC]; antisense) [compound 830059] | 22 |
| 830165 (antisense kA*k[5mC]*kA*dG*d[5mC]*dT*dG*dT*dA*d[5mC]*d[5mC]*dA*dG*kG*kG*k[5mC]) [compound 830165] | 58 |
| 798757 (kG*k[5mC]*kG*d[5mC]*dA*dG*dG*d[5mC]*dT*dG*d[5mC]*dG*d[5mC]*kG*k[5mC]*k[5mC]; antisense) [compound 798757] | 0 |

same assay, conditions: Hep3B cells, electroporation with 10,000 nM antisense oligonucleotide, approximately 24 hours, primer probe set RTS5062, relative to untreated control cells

| Substance | % inhibition of SMAD7 mRNA expression [%] | % Inhibition [%] |
| --- | --- | --- |
| 798969 (antisense kT*kG*k[5mC]*d[5mC]*dG*dA*dT*d[5mC]*dA*dT*dA*d[5mC]*d[5mC]*kT*kG*k[5mC]) [compound 798969] | 48 | – |
| 799008 (k[5mC]*k[5mC]*kA*dT*d[5mC]*dT*dG*d[5mC]*d[5mC]*dG*d[5mC]*dT*d[5mC]*k[5mC]*kT*kG; antisense) [compound 799008] | 60 | – |
| 799017 (kT*kG*k[5mC]*dA*dA*dA*d[5mC]*d[5mC]*dT*d[5mC]*dT*d[5mC]*dT*kG*k[5mC]*kT; antisense) [compound 799017] | – | 0 |
| 799049 (antisense kG*k[5mC]*k[5mC]*d[5mC]*dG*dT*dG*dT*d[5mC]*d[5mC]*dT*dT*dG*kA*kT*kG) [compound 799049] | 44 | – |
| 799212 (kT*kT*kA*dT*dA*d[5mC]*dA*d[5mC]*dA*dT*dT*dG*d[5mC]*kA*k[5mC]*kA; antisense) [compound 799212] | – | 35 |
| 798980 (antisense kA*k[5mC]*kA*d[5mC]*dT*dG*dT*dG*dT*dT*dT*dG*dG*kT*kG*kG) [compound 798980] | – | 50 |
| 798672 (antisense kG*kG*k[5mC]*dA*dG*dG*dA*dG*d[5mC]*dG*dG*d[5mC]*dG*kG*k[5mC]*kG) [compound 798672] | 6 | – |
| 799107 (antisense k[5mC]*kT*kG*dG*dT*dT*dT*dT*d[5mC]*dT*dA*dA*dG*kT*k[5mC]*k[5mC]) [compound 799107] | 51 | – |
| 798966 (antisense kT*kA*k[5mC]*d[5mC]*dT*dG*d[5mC]*d[5mC]*d[5mC]*d[5mC]*dT*dT*d[5mC]*kT*kT*k[5mC]) [compound 798966] | 35 | – |

same assay, conditions: Hep3B cells, electroporation, 10,000 nM antisense oligonucleotide, approximately 24 hours, RTS5062, relative to untreated control cells

| Substance | % inhibition of SMAD7 mRNA expression [%] |
| --- | --- |
| 799555 (kT*kA*k[5mC]*d[5mC]*d[5mC]*d[5mC]*dG*dT*dG*d[5mC]*d[5mC]*dT*dG*kT*k[5mC]*kA; antisense) [compound 799555] | 51 |
| 799695 (antisense k[5mC]*k[5mC]*kA*dG*dG*dA*dA*d[5mC]*d[5mC]*dA*dG*d[5mC]*dA*k[5mC]*kT*kT) [compound 799695] | 6 |
| 799760 (antisense kT*kT*k[5mC]*dT*dA*dG*dG*dT*dG*dA*dA*d[5mC]*d[5mC]*kA*kT*kA) [compound 799760] | 58 |
| 799288 (antisense kT*kA*kA*dT*dG*dG*dT*d[5mC]*dT*dG*d[5mC]*dT*d[5mC]*kA*kG*kG) [compound 799288] | 23 |
| 799679 (antisense k[5mC]*kT*kG*d[5mC]*dA*dG*dG*dG*dT*dA*d[5mC]*dT*dA*kA*kG*kG) [compound 799679] | 0 |
| 799731 (antisense k[5mC]*kT*kT*dT*d[5mC]*dT*dT*dG*dG*dT*dG*dT*dG*kT*kT*kA) [compound 799731] | 37 |
| 799811 (antisense k[5mC]*kT*kG*d[5mC]*d[5mC]*dA*dA*d[5mC]*dG*dG*d[5mC]*dA*d[5mC]*kA*kG*kT) [compound 799811] | 0 |
| 799715 (antisense k[5mC]*k[5mC]*kT*d[5mC]*dA*dG*dG*dG*d[5mC]*dT*dG*d[5mC]*d[5mC]*kA*k[5mC]*k[5mC]) [compound 799715] | 32 |
| 799613 (kT*k[5mC]*kA*d[5mC]*dA*dT*dT*d[5mC]*dG*dG*d[5mC]*dT*dG*kT*kT*kT; antisense) [compound 799613] | 17 |

same assay, conditions: SMAD7 mRNA, Hep3B cells, 10,000 nM antisense oligonucleotide, electroporation, approximately 24 hours, primer probe set RTS5062, relative to untreated control cells

| Substance | % Inhibition [%] |
| --- | --- |
| 829780 (antisense k[5mC]*kG*kG*d[5mC]*d[5mC]*dA*d[5mC]*d[5mC]*dT*dG*dA*dA*d[5mC]*kA*k[5mC]*kT) [compound 829780] | 37 |
| 829719 (antisense kG*k[5mC]*k[5mC]*dA*dG*dT*d[5mC]*dT*d[5mC]*d[5mC]*d[5mC]*dG*dG*kA*kG*kG) [compound 829719] | 15 |
| 829731 (antisense kA*kG*k[5mC]*dA*dG*dG*d[5mC]*dG*d[5mC]*dA*dG*dG*d[5mC]*kG*kA*k[5mC]) [compound 829731] | 50 |

same assay, conditions: SMAD7 mRNA, Hep3B cells, electroporation with 10,000 nM antisense oligonucleotide, approximately 24 hours, primer probe set RTS5062, relative to untreated control cells

| Substance | % Inhibition [%] |
| --- | --- |
| 830006 (antisense kA*k[5mC]*kT*d[5mC]*dA*d[5mC]*d[5mC]*dA*dG*dT*dT*dG*dG*kT*kT*kT) [compound 830006] | 0 |
| 829833 (kG*kT*kG*dA*d[5mC]*d[5mC]*dG*dA*dT*d[5mC]*d[5mC]*d[5mC]*d[5mC]*kA*kG*kG; antisense) [compound 829833] | 0 |
| 829968 (kA*kA*k[5mC]*d[5mC]*d[5mC]*d[5mC]*d[5mC]*dA*dG*dG*dG*dA*dA*kT*kG*k[5mC]; antisense) [compound 829968] | 30 |
| 829896 (antisense k[5mC]*kG*kG*dG*dT*dG*dT*dA*dG*d[5mC]*dA*d[5mC]*dT*kG*kG*k[5mC]) [compound 829896] | 44 |
| 829930 (k[5mC]*kA*k[5mC]*d[5mC]*dA*dA*dT*d[5mC]*dT*dT*dG*dT*dG*kT*kT*kT; antisense) [compound 829930] | 0 |
| 829988 (kG*k[5mC]*k[5mC]*dG*d[5mC]*dG*dA*dG*dG*d[5mC]*dG*dG*dT*kG*kA*kT; antisense) [compound 829988] | 27 |
| 829926 (k[5mC]*kA*kT*dG*d[5mC]*dT*d[5mC]*dA*dT*dT*dG*dA*dG*k[5mC]*kT*kA; antisense) [compound 829926] | 24 |
| 829948 (k[5mC]*kG*kG*dG*d[5mC]*dA*dG*d[5mC]*d[5mC]*dA*dG*dT*dT*kA*kA*kT; antisense) [compound 829948] | 43 |
| 829908 (antisense k[5mC]*kT*kA*d[5mC]*d[5mC]*dG*dG*d[5mC]*dT*dG*dT*dT*dG*kA*kA*kG) [compound 829908] | 1 |
